US10315990B2, “Isothiocyanate compounds and isothiocyanate XPO1 protein inhibitor drugs thereof” (DRIVINGFORCE THERAPEUTICS Co., Ltd., priority 2015, dated 2019)

Experiments:
[1] = system: IBD animal model; assay: Macroscopic pathological changes of IBD animal model (enteroclysis with TNBS); format: in vivo, SD rats; settings: TNBS rats
Method in brief: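 Male SD rats, eight weeks old (10 per group), given rectal TNBS in 50% ethanol at 100 mg/kg 5 cm from anus; controls received saline. Drug treatment for two weeks, then rectum photographed, weighed and scored macroscopically for ulceration and bleeding.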

[2] = system: TNF-α; assay: Serum TNF-α level of IBD animal model (ELISA); format: in vivo, SD rats; settings: 80 mg/kg, three days after making the TNBS model
Text: Inflammatory bowel disease is an autoimmune disease. […] The therapeutic effect of the representative compound for the immune system disease or inflammation can be assessed by detecting change in levels of some important cytokines such as TNF-α and IL-6 at downstream of the signal path.

[3] = system: HMLE-Snail cell line; assay: Formation of HMLE-Snail cell line spheroids; format: cell-based; settings: 10 μg/ml, treated for 24 hours; control = 100; read-out: Colony (%): cell colony number of drug-treated group/cell colony number of control group × 100%
[4] = system: HCT116; assay: Inhibitory activity for high metastasis type colon cancer cell line (MTT or CCK-8); format: cell-based; settings: Homo sapiens, HCT-116; HCT116, 72 hours; read-out: IC50
[5] = system: SW620; assay: as above; format: cell-based; settings: Homo sapiens, SW-620; SW620, 72 hours; read-out: IC50
[6] = system: Jeko-1; assay: Inhibitory activity for high metastasis type lymphoma cell line (MTT or CCK-8); format: cell-based; settings: Homo sapiens; Jeko-1, 72 hours; read-out: IC50
Experimental: (§1) Jeko-1, Raji and U2932 are three typical high metastasis type lymphoma cell lines. The lymphoma cell line was inoculated on 96-well cell culture plate in an amount of 6000 cells per well and cultured at 37° C. for 24 hours, and then treated solely with the compound added therein and cultured. Seventy-two hours later, MTT or CCK-8 method was used to detect the inhibitory activity of the compound for the two high metastasis type lymphoma cell lines.

[7] = system: Raji; assay: as above; format: cell-based; settings: Homo sapiens, 72 hours, read-out: IC50
Experimental: as §1

[8] = system: U2932; assay: as above; format: cell-based; settings: Homo sapiens; U2932, 72 hours; read-out: IC50
Experimental: as §1

[9] = system: A2780; assay: Inhibitory activity for high metastasis type ovarian cancer cell line (MTT or CCK-8); format: cell-based; settings: Homo sapiens; A2780, 72 hours; read-out: IC50
Experimental: (§2) The two cell lines were inoculated on 96-well cell culture plate in an amount of 6000 cells per well and cultured at 37° C. for 24 hours, and then treated solely with the representative compound added therein and cultured. Seventy-two hours later, MTT or CCK-8 method was used to detect the inhibitory activity of the representative compound for the high metastasis type ovarian cancer cell lines.

[10] = system: HO-8910; assay: as above; format: cell-based; settings: HO-8910, 72 hours; read-out: IC50
Experimental: as §2

[11] = system: SK-OV3 (high metastasis type ovarian cancer cell line); assay: Ovarian cancer intraperitoneal metastasis animal model; format: in vivo, nudemice (BALB/c-nu/nu); settings: Mus musculus, SK-OV-3, ip
[12] = system: Panc-1; assay: Inhibitory activity for other high metastasis type cancer cell line (MTT or CCK-8); format: cell-based; settings: Homo sapiens; Panc-1, 72 hours; read-out: IC50
[13] = system: KYSE-70; assay: as above; format: cell-based; settings: Homo sapiens; KYSE-70, 72 hours; read-out: IC50
[14] = system: Saos-2; assay: as above; format: cell-based; settings: Homo sapiens; Saos-2, 72 hours; read-out: IC50

With `C[S+]([O-])CCCCN=C=S` (stereo not drawn) [SFN, sulforaphane, reference compound] the Macroscopic pathological score ([1]; 80 mg/kg intragastrically daily, score 0-5, 10 animals) was 4.0 ± 0.5, the “colon tissue bleeding and ulceration phenomena (in words)” value ([1]; 80 mg/kg) was “small relief extent” and the “Serum TNF-α level, Animal-1” value ([2]; Animal-1) was 2.1 ng/mL. For the same molecule, the “Serum TNF-α level, Animal-2” value ([2]; Animal-2) was 1.8 ng/mL, the “Serum TNF-α level, Animal-3” value ([2]; Animal-3) was 2.1 ng/mL and the activity at 10 µg/mL [3] was 90%. The IC50 [4] was 13.2 µM, the IC50 [5] was 15.1 µM and the IC50 [6] was 10.1 µM. It also gave an IC50 [7] of 11 µM, an IC50 [8] of 13.4 µM and an IC50 [9] of 23.2 µM. The IC50 [10] was 21.3 µM, the response vs control in vivo at 80 mg/kg ([11]; 504 h, 80 mg/kg intraperitoneal injection once a day for 3 weeks, read-out: T/C (%)) was 95% and the mortality at 80 mg/kg ([11]; 720 h, read-out: Mortality (within 30 days)) was 16.7%. For the same molecule, the IC50 [12] was 12.1 µM, the IC50 [13] was 11.3 µM and the IC50 [14] was 14.5 µM.
